Test results taken from publication PMC8474116, “Discovery of Novel Acetamide-Based Heme Oxygenase-1 Inhibitors with Potent In Vitro Antiproliferative Activity” (Journal of Medicinal Chemistry, 2021).

Experiments:
[1] = molecular target: T1, HO-2 (Rattus norvegicus, UniProt P23711); test: HO-2 enzymatic activity, rat brain microsomal fraction (bilirubin formation); assay type: biochemical; settings: mean of triplicate ± SD
T1 construct: selected to use the most native (i.e., closest to in vivo) forms of HO-1 and HO-2; from tissue; host or cells: rat brain (male Sprague-Dawley), microsomal fraction
T1 sequence (P23711 1-315): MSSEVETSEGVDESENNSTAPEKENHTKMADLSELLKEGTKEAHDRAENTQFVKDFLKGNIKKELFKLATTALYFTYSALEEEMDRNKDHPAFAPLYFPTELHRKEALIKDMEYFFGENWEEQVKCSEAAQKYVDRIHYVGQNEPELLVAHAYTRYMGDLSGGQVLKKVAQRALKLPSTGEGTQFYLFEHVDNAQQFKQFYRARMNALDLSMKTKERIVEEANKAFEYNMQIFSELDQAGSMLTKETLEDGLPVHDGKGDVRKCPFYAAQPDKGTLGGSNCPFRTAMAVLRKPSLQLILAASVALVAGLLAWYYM
Protocol: (§1) HO-1 and HO-2 were obtained, respectively, from the rat spleen and brain as the microsomal fraction prepared by differential centrifugation; the dominance of HO-1 protein in the rat spleen and HO-2 in the rat brain has been well documented.[24] These particular microsomal preparations were selected to use the most native (i.e., closest to in vivo) forms of HO-1 and HO-2. Spleen and brain (Sprague-Dawley rats) microsomal fractions were prepared according to the procedure outlined by Ryter et al.[2] The experiments reported in the present paper complied with the current Italian law and met the guidelines of the Institutional Animal Care and Use Committee of the Ministry of Health (Directorate General for Animal Health and Veterinary Medicines, Italy) “Dosing of enzymatic activities in rat microsomes” (2018–2022), project code 02769.N.VLY. The experiments were performed in male Sprague-Dawley albino rats (150 g body weight and age 45 d). They had free access to water and were kept at room temperature with a natural photoperiod (12 h light–12 h dark cycle). For measuring HO-1 and HO-2 activities, each rat was sacrificed and their spleen and brain were excised and weighed. A homogenate (15%, w/v) of spleens and brains pooled from four rats was prepared in ice-cold HO-homogenizing buffer (50 mM Tris buffer, pH 7.4, containing 0.25 M sucrose) using a Potter–Elvehjem homogenizing system with a Teflon pestle. The microsomal fraction of rat spleen and brain homogenate was obtained by centrifugation at 10 000g for 20 min at 4 °C, followed by centrifugation of the supernatant at 100 000g for 60 min at 4 °C. The 100 000g pellet (microsomes) was resuspended in 100 mM of potassium phosphate buffer, pH 7.8, containing 2 mM MgCl2 with a Potter–Elvehjem homogenizing system. The rat spleen and brain microsomal fractions were divided into equal aliquots, placed into microcentrifuge tubes, and stored at −80 °C for up to 2 months.
(§2) Liver cytosol has been used as a source of biliverdin reductase. Rat liver was perfused through the hepatic portal vein with cold 0.9% NaCl; then, it was cut and flushed with 2 × 20 mL of ice-cold PBS to remove all of the blood. Liver tissue was homogenized in 3 volumes of a solution containing 1.15% KCl w/v and Tris buffer 20 mM, pH 7.8 on ice. Homogenates were centrifuged at 10 000g for 20 min at 4 °C. The supernatant was decanted and centrifuged at 100 000g for 1 h at 4 °C to sediment the microsomes. The 100 000g supernatant was saved and then stored in small amounts at −80 °C after its protein concentration was measured.
(§3) The HO-1 and HO-2 activities were determined by measuring the bilirubin formation using the difference in absorbance at 464–530 nm, as described by Ryter et al.[2] Reaction mixtures (500 μL) consisted of 20 mM of Tris–HCl, pH 7.4, (1 mg/mL) microsomal extract, 0.5–2 mg/mL of biliverdin reductase, 1 mM of NADPH, 2 mM of glucose 6-phosphate (G6P), 1 U of G6P dehydrogenase, 25 μM of hemin, and 10 μL of DMSO (or the same volume of DMSO solution of test compounds to a final concentration of 100, 10, and 1 μM). Incubations were carried out for 60 min at 37 °C in a circulating water bath in the dark. Reactions were stopped by adding the same volume of chloroform. After recovering the chloroform phase, the amount of bilirubin formed was measured with a double-beam spectrophotometer as OD464–530 nm (extinction coefficient, 40 mM/cm^–1 for bilirubin). One unit of the enzyme was defined as the amount of enzyme catalyzing the formation of 1 nmol of bilirubin/mg protein/h.

[2] = test system: HO-1; test: HO-1 protein expression by Western blot, A172; assay type: cell-based, human; settings: A172, 10 μM, 48 h
Protocol: (§4) Proteins were extracted from total cell lysate, as previously described.[61] Briefly, cell lines were added to a buffer containing 20 mM Tris (pH 7.4), 2 mM EDTA, 0.5 mM EGTA, 50 mM mercaptoethanol, and […] sucrose supplemented with phosphatase and protease inhibitor cocktails (Roche Diagnostics, Monza, Italy). Subsequently, protein samples were sonicated twice for 20′ by using an ultrasonic probe, followed by centrifugation at 10 000g for 10 min at 4 °C. Sample proteins (30 μg) were diluted in 4X NuPage LDS sample buffer (Invitrogen, NP0007), heated at 80 °C for 5 min, and then separated on a Biorad Criterion XT 4–15% Bis–Tris gel (BIO-RAD) by electrophoresis and then transferred to a PVDF membrane (BIO-RAD). Blots were blocked using the Odyssey Blocking Buffer (LI-COR Biosciences) and probed with appropriate antibodies: HO-1 antibody (GeneTex GTX101147), goat polyclonal anti-VEGF (cat. no. sc-1836, Santa Cruz Biotechnology), and rabbit polyclonal anti-β-tubulin (cat n.sc-9104, Santa Cruz Biotechnology) and β-actin antibody (GeneTex GTX109639).
(§5) The secondary antibodies goat antirabbit (Odyssey, #926-32211; Odyssey #926-68021) and donkey antigoat IRDye 800CW (cat #926-32214; Li-Cor Biosciences) were used at 1:7000. Blots were scanned, and densitometric analysis was performed with the Odyssey Infrared Imaging System. Values were normalized to β-actin and to β-tubulin.

[3] = test system: HO-1; test: HO-1 protein expression by Western blot, DU145; assay type: cell-based; settings: DU145, 10 μM, 48 h
Protocol: as §4, §5

[4] = test system: A172 cells; test: MTT cell viability assay, A172; assay type: cell-based, human; settings: 48 h, all tested concentrations (1, 10, 50 μM)
Protocol: Experiments were performed on human GBM cell lines U87MG (ATCCC number #HTB-14) and A172 (ATCCC #CRL-1620) on DU145 (ATCC HTB-81) and human lung adenocarcinoma A549 (ATCC CCL-185-LUC2). All cell lines were obtained from the American Type Culture Collection (ATCC, Rockville, MD). Cells were grown in Dulbecco’s modified Eagle’s medium (DMEM) supplemented with 10% of heat-inactivated fetal bovine serum (FBS), 100 U/mL of penicillin, and 100 μg/mL of streptomycin (Sigma-Aldrich, Steinheim, Germany). Cells were incubated at 37 °C in a humidified atmosphere with 5% CO2.
The effect of selected compounds 7i and 7l–p on cell viability was assessed by performing an MTT assay. Cells were seeded into 96-well plates at a density of 7 × 10^3 cells/well in 100 μL of culture medium. After 24 h, cells were treated with selected compounds at three different concentrations (1 μM, 10 μM, and 50 μM) for 48 h. Following treatments, 0.5 mg/mL of 3-[4,5-dimethylthiazol-2-yl]-2,5-diphenyltetrazolium bromide (MTT) (Sigma-Aldrich) was added to each well and incubated for 4 h at 37 °C. Finally, dimethyl-sulfoxide (DMSO) was used to dissolve formazan salts, and absorbance was measured at 570 nm in a microplate reader (Biotek Synergy-HT). Eight replicate wells were used for each group.

[5] = molecular target: T2, HO-1 (Rattus norvegicus, UniProt P06762); test: HO-1 enzymatic activity, rat spleen microsomal fraction (bilirubin formation); assay type: biochemical
T2 construct: selected to use the most native (i.e., closest to in vivo) forms of HO-1 and HO-2; from tissue; host or cells: rat spleen (male Sprague-Dawley), microsomal fraction
T2 sequence (P06762 1-289): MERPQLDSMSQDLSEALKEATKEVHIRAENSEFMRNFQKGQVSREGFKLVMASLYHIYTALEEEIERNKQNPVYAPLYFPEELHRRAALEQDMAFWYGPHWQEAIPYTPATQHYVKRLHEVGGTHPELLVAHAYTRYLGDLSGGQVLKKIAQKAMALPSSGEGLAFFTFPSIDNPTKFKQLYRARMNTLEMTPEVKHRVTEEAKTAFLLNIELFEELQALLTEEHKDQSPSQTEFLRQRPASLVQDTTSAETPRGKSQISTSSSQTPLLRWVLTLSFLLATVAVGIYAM
Protocol: as §1, §2, §3

[6] = test system: HO-1; test: HO-1 inhibition of known inhibitors (values printed in Figure 1); assay type: biochemical; settings: 0.27 vs 4.0 μM

| IC50 [1] | melting point | HO-1 vs HO-2 selectivity (in words) [5] | fold more potent than parent compound 4 (HO-1) [5] | IC50 ([5]; rat spleen microsomal fraction, mean of triplicate ± SD) | SI (HO-2/HO-1) ([5]; ratio of HO-2 and HO-1 IC50) | Compound | HO-1 protein expression (in words) [2] | HO-1 protein expression (in words) [3] | cell viability reduction (in words) [4] | fold higher inhibitory potency toward HO-1 with respect to monophenyl analogue 2 [6] |
| --- | --- | --- | --- | --- | --- | --- | --- | --- | --- | --- |
| 900 ± 50 nM | 121 to 126 °C | superimposable HO-1 and HO-2 IC50 values | about 32 fold | 900 ± 70 nM | 1 | CN(C(=O)Cn1ccnc1)C(c1ccccc1)c1ccccc1 [7i, N-Benzhydryl-2-(1H-imidazol-1-yl)-N-methylacetamide] | enhanced its levels | reduced HO-1 protein expression | remarkable reduction of cell viability | – |
| – | – | – | – | – | – | O=C(CC(c1ccccc1)c1ccccc1)Cn1ccnc1 [compound 3] | – | – | – | 15 fold |
